We go through 11 compounds from ChEMBL document CHEMBL1201862, “PubChem BioAssay data set” (2004).

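Step 1: Grow cells in 96-well plates. Step 2: Expose to compound for 48 hours at 5 concentrations. Step 3: Interpolate endpoints linearly; if unreached, use highest concentration. At the GI50, growth is halved.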 Activity calls are given as the source filed them. Cut-off read from the data, not from the text of the source: active = GI50 up to about 1.1 µM and inactive = higher.

Common to all, as to experiment: growth of human tumour cells (NCI), 48 h
Test [1] concerns MDA-MB-231.
For test [2], the system named is OVCAR-5.
Test [3] concerns NCI-H522.
For test [4], the system named is A549.
Test [5] has as its system SK-MEL-2.
Test [6] has as its system HCT-15.
Test [7] relates to Malme-3M.
The test system of test [8] is TK-10.
Test [9] deals with SN12C.
For test [10], the system named is NCI-H460.
Test [11] deals with COLO 205.
For test [12], the system named is OVCAR-4.
Test [13] has as its system UACC-62.
Test [14] deals with CAKI-1.
Test [15] has as its system 786-0.
Test [16] relates to SF-268.
The subject of test [17] is SF-295.
The test system of test [18] is NCI-H226.
In test [19] the test system is Hs-578T.
Test [20] has as its system SF-539.

For the compound `COc1ccc2c(c1)C(=O)CC(N)C2` (configuration not stated), the GI50 in [1] is > 100 µM (inactive); in test [2] it was > 100 µM (inactive); in test [3], > 100 µM (inactive); in test [4] it was > 100 µM (inactive); in test [5], > 100 µM (inactive); in [6], above 100 µM. For the same compound, the GI50 in [7], in test [8], in [9], in test [10], in test [11] and in test [12] was > 100 µM (inactive) in each case. The GI50 was 68.5 µM (inactive) in [13]; > 100 µM (inactive) in test [14]; > 100 µM (inactive) in test [15]; > 100 µM (inactive) in test [16]; > 100 µM (inactive) in test [17]; 67.8 µM (inactive) in test [18]. The GI50 in [19] was 42.2 µM (inactive).
For `Cc1ncc([N+](=O)[O-])n1CCN(C)CCCCn1ccnc1[N+](=O)[O-]`, the GI50 in test [1] was > 100 µM (inactive); in [2], > 100 µM (inactive); in test [4] it was > 100 µM (inactive); in test [5] it was > 100 µM (inactive); in [6] it was above 100 µM; in test [7], > 100 µM (inactive). For the same compound, the GI50 in test [8], in test [9], in test [10], in test [11], in [12] and in [13] was > 100 µM (inactive) throughout. The GI50 in [14], in [15], in test [16], in [17], in test [18] and in [20] was > 100 µM (inactive) in each case. For the same compound, in test [19], the GI50 was > 100 µM (inactive).
For `Cc1nc2ccccc2c(=O)n1NC(=O)c1ccccc1[N+](=O)[O-]`, the GI50 was > 100 µM (inactive) in test [1]; > 100 µM (inactive) in [2]; > 100 µM (inactive) in test [3]; > 100 µM (inactive) in [4]; above 100 µM in [6]; > 100 µM (inactive) in test [7]. In addition, the GI50 in [8], in test [9], in test [10], in test [12], in [13] and in [15] was > 100 µM (inactive) in each case. In addition, the GI50 in [16] is > 100 µM (inactive); in [17], > 100 µM (inactive); in test [18] it was > 100 µM (inactive); in [20] it was > 100 µM (inactive); in test [19] it was 33.9 µM (inactive).
As for `O=C(NCCCCN(CCCNC(=O)C(F)(F)F)Cc1ccc2ccccc2c1)C(F)(F)F`, the GI50 in test [1] is 16.7 µM (inactive); in test [2], 17.2 µM (inactive); in test [3], 18.2 µM (inactive); in test [4], 30.4 µM (inactive); in test [6] it was 17.3 µM; in test [7], 15.3 µM (inactive). Besides, the GI50 in [8] was 20.4 µM (inactive); in test [9], 16.1 µM (inactive); in test [10], 16.4 µM (inactive); in test [11], 14.9 µM (inactive); in test [12], 17.6 µM (inactive); in test [13], 19.1 µM (inactive). In addition, the GI50 was 14.3 µM (inactive) in [14]; 15.6 µM (inactive) in test [15]; 16 µM (inactive) in test [16]; 16.7 µM (inactive) in test [17]; 17.3 µM (inactive) in test [18]; 16.3 µM (inactive) in test [20]. Moreover, the GI50 in test [19] was 17.7 µM (inactive).
Consider `O=C1c2cc(Cl)ccc2N=C(NCCCl)C2CSCN12` (configuration not stated), for which the GI50 was > 100 µM (inactive) in test [1]; > 100 µM (inactive) in test [2]; 24.3 µM (inactive) in [3]; > 100 µM (inactive) in [4]; > 100 µM (inactive) in [5]; above 100 µM in test [6]. The GI50 in test [7], in test [8], in test [9], in test [10], in test [11] and in [12] was > 100 µM (inactive) in each case. For the same compound, the GI50 in [13], in [14], in test [15], in [16], in test [17] and in test [18] was > 100 µM (inactive) in each case. Besides, the GI50 in test [19] was 86.5 µM (inactive).
Take `CC1(C)CC(=O)C2=C(C1)NC(SCC(=O)O)=C(C#N)C2c1ccc(Br)cc1` (configuration not stated): the GI50 in [1] is > 100 µM (inactive); in test [2], > 100 µM (inactive); in [3], 86.5 µM (inactive); in [4], > 100 µM (inactive); in [5], > 100 µM (inactive); in test [6], above 100 µM. Besides, the GI50 in test [8], in [10], in test [11], in test [12], in test [13] and in [14] was > 100 µM (inactive) each time. Also, the GI50 in [15], in [16], in test [17], in test [18] and in test [19] was > 100 µM (inactive) in each case.
For the compound `COC(=O)c1sc(=S)sc1SCc1ccccc1CSc1sc(=S)sc1C(=O)OC`, the GI50 in test [1] was > 100 µM (inactive); in [2] it was > 100 µM (inactive); in test [3], > 100 µM (inactive); in test [4], > 100 µM (inactive); in test [5], > 100 µM (inactive); in test [6] it was above 100 µM. The GI50 in test [7], in test [8], in test [9], in test [10], in [11] and in test [12] was > 100 µM (inactive) throughout. The GI50 in test [13] was > 100 µM (inactive); in [14] it was > 100 µM (inactive); in [15] it was 46.1 µM (inactive); in test [16], > 100 µM (inactive); in test [17], 58.9 µM (inactive); in [18] it was > 100 µM (inactive). For the same compound, in test [19], the GI50 was > 100 µM (inactive).
For the compound `COC(=O)[C@@H]1C[C@@]2(C3C=CN(C(=O)C(F)(F)F)C=C3)c3ccccc3N(C(=O)C(F)(F)F)[C@H]2N1C(=O)OC`, the GI50 was > 100 µM (inactive) in test [1]; > 100 µM (inactive) in test [2]; 26.8 µM (inactive) in [3]; > 100 µM (inactive) in test [4]; 88.1 µM in test [6]; > 100 µM (inactive) in test [7]. For the same compound, the GI50 in [8] was 16.9 µM (inactive); in [9] it was 56.9 µM (inactive); in test [10] it was > 100 µM (inactive); in test [11], > 100 µM (inactive); in test [12] it was 93.3 µM (inactive); in test [13] it was 32.1 µM (inactive). Besides, the GI50 is 65.3 µM (inactive) in test [14]; 54 µM (inactive) in [15]; 43 µM (inactive) in [16]; > 100 µM (inactive) in test [17]; > 100 µM (inactive) in test [18]; > 100 µM (inactive) in [20]. In test [19], the GI50 was 49.7 µM (inactive).
In the case of `CC(C)(C)C1CC[C@H](O)[C@H]([C@@H](O)CC2CC(=O)N(c3ccccc3)C(=O)C2)C1` (some centres not stated), the GI50 in test [1] was 67.3 µM (inactive); in [2], > 100 µM (inactive); in [3], > 100 µM (inactive); in test [4], 67.5 µM (inactive); in [6], 56.4 µM; in [7], 65.5 µM (inactive). In addition, the GI50 was > 100 µM (inactive) in test [8]; > 100 µM (inactive) in test [9]; 44.2 µM (inactive) in test [10]; 57.5 µM (inactive) in [12]; 26.6 µM (inactive) in test [13]; > 100 µM (inactive) in [14]. Further, the GI50 in [15], in test [16], in test [17], in test [18], in [20] and in test [19] was > 100 µM (inactive) throughout.
For `CCn1c(SCC(=O)NNC(=S)Nc2ccc(F)cc2)nc2ccccc2c1=O`, the GI50 in test [1] is > 100 µM (inactive); in [2], > 100 µM (inactive); in test [3], 48 µM (inactive); in test [4] it was > 100 µM (inactive); in test [5] it was > 100 µM (inactive); in test [6], 74.6 µM. Further, the GI50 is > 100 µM (inactive) in [7]; > 100 µM (inactive) in test [8]; > 100 µM (inactive) in test [9]; 0.472 µM (active) in [10]; > 100 µM (inactive) in test [11]; 63 µM (inactive) in test [12]. For the same compound, the GI50 in [13] is 58.7 µM (inactive); in [15], > 100 µM (inactive); in test [16], 79.8 µM (inactive); in [17] it was > 100 µM (inactive); in test [18], > 100 µM (inactive); in test [20], > 100 µM (inactive). For the same compound, the GI50 in [19] is > 100 µM (inactive).
For the compound `C/C=C/C(C#N)(/C=C/c1ccccc1)OP1(=O)OC(c2ccccc2)C(C)N1C` (configuration not stated), the GI50 is 17.5 µM (inactive) in test [1]; 20.1 µM (inactive) in test [2]; 20.7 µM (inactive) in [3]; 20 µM (inactive) in test [4]; 18.6 µM (inactive) in test [5]; 18.9 µM (inactive) in test [7]. In addition, the GI50 in test [8] was 19.9 µM (inactive); in test [9], 19.2 µM (inactive); in test [10], 17.9 µM (inactive); in [11] it was 17.2 µM (inactive); in [13], 17.7 µM (inactive); in test [14], 23.3 µM (inactive). The GI50 is 17.1 µM (inactive) in test [15]; 19.6 µM (inactive) in [16]; 16.3 µM (inactive) in test [17]; 17.8 µM (inactive) in [20]; 22.4 µM (inactive) in test [19].
